Test results published in US6992188B1, “Substituted heterocyclic derivatives” (Pfizer, Inc., priority 1995, dated 2006).

melting point: 235 to 237 °C
SMILES: CCC(CC)n1c(=O)[nH]c2c(Oc3c(C)cc(C)cc3C)nc(C)cc21 [Example 4, 1-(1-Ethylpropyl)-6-methyl-4-(2,4,6-trimethylphenoxy)-1,3-dihydro-imidazo[4,5-c]pyridin-2-one]
